Results from ChEMBL document CHEMBL5120764, “Isarubrolone C Promotes Autophagic Degradation of Virus Proteins via Activating ATG10S in HepG2 Cells” (J Nat Prod, 2022).
The source made the active and inactive calls.

Assays:
Assay type in all cases: functional, cell-based
HepG2 [1] = assay: Induction of autophagy in human HepG2 cells co-transfected with ZIKV-NS5 assessed as decrease in ZIKV-NS5 protein level upto 10 uM and measured after 6 hrs by western blot analysis; details: DDE = dose-dependent effect
HepG2 [2] = assay: Induction of autophagy in human HepG2 cells transfected with ZIKV-NS5 assessed as increase in ZIKV-NS5-LAMP2 interaction level at 10 uM incubated for 24 hrs in presence of anti-Flag antibodies by co-immunoprecipitation assay
HepG2 [3] = assay: Induction of autophagy in human HepG2 cells transfected with HCV sub-replicon assessed as decrease in HCV-CORE protein level upto 10 uM and measured after 6 hrs by western blot analysis; details: DDE = dose-dependent effect
HepG2 [4] = assay: Upregulation of P62 in human HepG2 cells transfected with HIV-RT and gene knockdown by IL28A morpholinos at 10 uM incubated for 24 hrs by western blot analysis
HepG2 [5] = assay: Upregulation of endogenous ATG10S activated co-localisation of HIV-RT with LC3B in human HepG2 cells co-transfected with HIV-RT and ATG10-misMO by cellular immunofluorescence assay
HepG2 [6] = assay: Upregulation of endogenous ATG10S activated co-localisation of HIV-RT with LAMP2 in human HepG2 cells co-transfected with HIV-RT and ATG10-sMO by cellular immunofluorescence assay
HepG2 [7] = assay: Induction of autophagy in human HepG2 cells transfected with HCV subgenomic replicon assessed as HCV-CORE/ATG10/ATG10S combination at 10 uM incubated for 24 hrs in presence of anti-LAMP2 antibodies by co-immunoprecipitation assay
HepG2 [8] = assay: Effect on HBx degradation in human HepG2 cells transfected with HBx at 10 uM pretreated with proteosome inhibitor MG132 for 12 hrs followed by compound addition and measured after 24 hrs by western blot analysis
HepG2 [9] = assay: Upregulation of HBx in human HepG2 cells transfected with HBx and gene knockdown by IL28A morpholinos at 10 uM incubated for 24 hrs by western blot analysis
HepG2 [10] = assay: Upregulation of LC3B in human HepG2 cells transfected with HBx and gene knockdown by IL28A morpholinos at 10 uM incubated for 24 hrs by western blot analysis
HepG2 [11] = assay: Upregulation of endogenous ATG10S activated co-localisation of ZIKV-NS5 with LC3B in human HepG2 cells co-transfected with ZIKV-NS5 and ATG10-sMO by cellular immunofluorescence assay
HepG2 [12] = assay: Effect on HCV-CORE degradation in human HepG2 cells transfected with HCV sub-replicon at 10 uM pretreated with proteosome inhibitor MG132 for 12 hrs followed by compound addition and measured after 24 hrs by western blot analysis
HepG2 [13] = assay: Induction of autophagy in human HepG2 cells transfected with HBx assessed as decrease in HBx protein level upto 10 uM and measured after 6 hrs by western blot analysis; details: DDE = dose-dependent effect
HepG2 [14] = assay: Upregulation of endogenous ATG10S activated co-localisation of HIV-RT with LAMP2 in human HepG2 cells co-transfected with HIV-RT and ATG10-misMO by cellular immunofluorescence assay
HepG2 [15] = assay: Upregulation of P62 in human HepG2 cells transfected with HBx and gene knockdown by IL28A morpholinos at 10 uM incubated for 24 hrs by western blot analysis
HepG2 [16] = assay: Induction of autophagy in human HepG2 cells transfected with HCV subgenomic replicon assessed as HCV-CORE/P62 combination at 10 uM incubated for 24 hrs in presence of anti-LAMP2 antibodies by co-immunoprecipitation assay
HepG2 [17] = assay: Upregulation of endogenous ATG10S activated co-localisation of HIV-RT with LC3B in human HepG2 cells co-transfected with HIV-RT and ATG10-sMO by cellular immunofluorescence assay
HepG2 [18] = assay: Upregulation of ATG10/ATG10S mRNA level in human HepG2 cells transfected with HCV sub-replicon upto 10 uM by RT-PCR analysis; details: DDE = dose-dependent effect
HepG2 [19] = assay: Induction of autophagy in human HepG2 cells transfected with HCV subgenomic replicon assessed as HCV-NS5B/P62 combination at 10 uM incubated for 24 hrs in presence of anti-LAMP2 antibodies by co-immunoprecipitation assay
HepG2 [20] = assay: Effect on P62 degradation in human HepG2 cells at 10 uM pretreated with proteosome inhibitor MG132 for 12 hrs followed by compound addition and measured after 24 hrs by western blot analysis
HepG2 [21] = assay: Effect on HCV-NS5B degradation in human HepG2 cells transfected with HCV sub-replicon at 10 uM pretreated with proteosome inhibitor MG132 for 12 hrs followed by compound addition and measured after 24 hrs by western blot analysis
HepG2 [22] = assay: Induction of autophagy in human HepG2 cells co-transfected with ATG10 or ATG10S assessed as increase in ATG10/ATG10S protein level upto 10 uM and measured after 6 hrs by western blot analysis; details: DDE = dose-dependent effect
HepG2 [23] = assay: Induction of autophagy in human HepG2 cells assessed as decrease in P62 expression level upto 10 uM and measured after 6 hrs by western blot analysis; details: DDE = dose-dependent effect
HepG2 [24] = assay: Upregulation of IL28A mRNA expression level in human HepG2 cells transfected with ZIKV-NS5 upto 10 uM by qRT-PCR analysis; details: DDE = dose-dependent effect
HepG2 [25] = assay: Downregulation of HCV-CORE in human HepG2 cells co-transfected with HCV-subreplicon and ATG10-misMO upto 10 uM incubated for 24 hrs by western blot analysis
HepG2 [26] = assay: Induction of autophagy in human HepG2 cells transfected with HCV subgenomic replicon assessed as HCV-CORE/LAMP2 combination at 10 uM incubated for 24 hrs in presence of anti-LAMP2 antibodies by co-immunoprecipitation assay
HepG2 [27] = assay: Induction of autophagy in human HepG2 cells assessed as increase in IL28A protein level upto 10 uM and measured after 6 hrs by western blot analysis; details: DDE = dose-dependent effect
HepG2 [28] = assay: Upregulation of ZIKV-NS5 in human HepG2 cells transfected with ZIKV-NS5 and gene knockdown by IL28A morpholinos at 10 uM incubated for 24 hrs by western blot analysis
HepG2 [29] = assay: Upregulation of endogenous ATG10S activated co-localisation of HBx with LC3B in human HepG2 cells co-transfected with HBx and ATG10-sMO by cellular immunofluorescence assay
HepG2 [30] = assay: Induction of autophagy in human HepG2 cells transfected with ZIKV-NS5 assessed as increase in ZIKV-NS5-P62 interaction level at 10 uM incubated for 24 hrs in presence of anti-Flag antibodies by co-immunoprecipitation assay
HepG2 [31] = assay: Upregulation of ATG10/ATG10S mRNA level in human HepG2 cells transfected with HIV-RT upto 10 uM by RT-PCR analysis; details: DDE = dose-dependent effect
HepG2 [32] = assay: Upregulation of P62 in human HepG2 cells transfected with HCV sub-replicon and gene knockdown by IL28A morpholinos at 10 uM incubated for 24 hrs by western blot analysis
HepG2 [33] = assay: Upregulation of P62 in human HepG2 cells transfected with ZIKV-NS5 and gene knockdown by IL28A morpholinos at 10 uM incubated for 24 hrs by western blot analysis

Measured: Activity

CC[C@@H](O)c1nc(C)cc2c1C(=O)c1cc(=O)c3c(c(O)c1-2)O[C@@H]1O[C@H](C)[C@@H](OC)[C@@H](O)[C@]31O
active: HepG2 [1] Dde | HepG2 [2] | HepG2 [3] Dde | HepG2 [4] | HepG2 [5] | HepG2 [6] | HepG2 [7] | HepG2 [8] | HepG2 [9] | HepG2 [10] | HepG2 [11] | HepG2 [12] | HepG2 [13] Dde | HepG2 [14] | HepG2 [15] | HepG2 [16] | HepG2 [17] | HepG2 [18] Dde | HepG2 [19] | HepG2 [20] | HepG2 [21] | HepG2 [22] Dde | HepG2 [23] Dde | HepG2 [24] Dde | HepG2 [25] | HepG2 [26] | HepG2 [27] Dde | HepG2 [28] | HepG2 [29] | HepG2 [30] | HepG2 [31] Dde | HepG2 [32] | HepG2 [33]
